Experimental data: US10688082B2, “Aminopyrazine compounds with A2A antagonist properties” (Merck Sharp & Dohme Corp., priority 2015, dated 2020)

Target: T1, human A2a receptor (Homo sapiens, UniProt P29274)
T1 construct: purchased Perkin-Elmer RBHA2AM400UA; host or cells: HEK293 cells (membranes)
Assay: Competition binding assay using Scintillation Proximity technology (A2a activity)
Conditions: membranes from HEK293 cells expressing the human A2a receptor; 0.5 nM tritiated ligand; Cheng-Prusoff
Summary of the method: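 Membranes from HEK293 cells expressing human A2a, pretreated with adenosine deaminase, competed against 0.5 nM tritiated pyrazolotriazolopyrimidine ligand with WGA SPA beads, 1 h at room temperature with agitation. Compounds 3000–0.152 nM final; nonspecific binding with 1 μM CGS15943. Ki from […] via Cheng-Prusoff.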

T1 sequence (P29274 whole entry): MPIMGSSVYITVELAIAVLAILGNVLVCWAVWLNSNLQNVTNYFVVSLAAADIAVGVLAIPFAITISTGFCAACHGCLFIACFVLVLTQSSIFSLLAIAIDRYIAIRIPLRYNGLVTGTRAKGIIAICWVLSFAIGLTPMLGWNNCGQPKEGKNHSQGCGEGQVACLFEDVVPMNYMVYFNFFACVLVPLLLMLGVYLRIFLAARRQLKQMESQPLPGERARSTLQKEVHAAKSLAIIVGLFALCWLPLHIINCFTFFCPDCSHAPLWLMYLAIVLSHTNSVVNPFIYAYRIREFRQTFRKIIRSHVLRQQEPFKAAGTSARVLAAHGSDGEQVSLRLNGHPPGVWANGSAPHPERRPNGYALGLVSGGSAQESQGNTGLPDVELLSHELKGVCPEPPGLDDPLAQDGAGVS

| Ki | Compound |
| --- | --- |
| 131 nM | Nc1nc2c(F)cccc2c2cc(-c3nnc(-c4cccc5cccnc45)o3)nn12 [Ex-112, 7-fluoro-2-(5-(quinolin-8-yl)-1,3,4-oxadiazol-2-yl)pyrazolo[1,5-c]quinazolin-5-amine] |
| 7 nM | Nc1nc2c(F)cccc2c2cc(-c3nnc(Cc4ccc5cccnc5c4)o3)nn12 [Ex-113, 7-fluoro-2-(5-(quinolin-7-ylmethyl)-1,3,4-oxadiazol-2-yl)pyrazolo[1,5-c]quinazolin-5-amine] |
| 8 nM | Nc1nc2ccc(F)cc2c2cc(C(=O)N3CCN(c4ccc(F)cc4F)CC3)nn12 [Ex-114, (5-amino-9-fluoropyrazolo[1,5-c]-quinazolin-2-yl)(4-(2,4-difluorophenyl)piperazin-1-yl)methanone] |
| 41 nM | Nc1nc2ccc(F)cc2c2cc(C(=O)N3CCN(c4ccccn4)CC3)nn12 [Ex-115, (5-amino-9-fluoropyrazolo[1,5-c]-quinazolin-2-yl)(4-(pyridin-2-yl)-piperazin-1-yl)methanone] |
